According to patent publication US20180339024A1, “PEPTIDES WITH ANTI-ANGIOGENIC, ANTI-LYMPHANGIOGENIC, AND ANTI-EDEMIC PROPERTIES AND NANOPARTICLE FORMULATIONS” (Asclepix Therapeutics, LLC, priority 2015, published 2018):
Entries after “also recorded” stand apart in the source; their conditions may differ.

Assays:
[1] = biological target: α5β1 integrin (Homo sapiens, UniProt P05556+P08648); test: Target identification of P07 (α5β1); type: binding
[2] = system: hepatocyte growth factor receptor (HGFR or c-met); test: P07 inhibition of HGF receptor signaling in microvascular endothelial cells; type: cell-based; settings: FIG. 1
From the text: (§1) Integrins function as co-receptors for many growth factor receptors such as VEGFR, hepatocyte growth factor receptor (HGFR or c-met), insulin-like growth factor receptor (IGFR), and platelet derived growth factor receptor (PDGFR).

[3] = system: insulin-like growth factor receptor (IGFR); test: P07 inhibition of IGF receptor signaling in microvascular endothelial cells; type: cell-based; settings: FIG. 1
From the text: as §1

[4] = system: small cell lung cancer (SCLC) xenografts; test: Small cell lung cancer xenografts; type: in vivo; settings: not shown
[5] = system: VEGF induced neovascularization and leakage; test: Mouse models of retinal and choroidal neovascularization and vascular leakage; type: in vivo
[6] = system: glioblastoma xenografts; test: Glioblastoma xenografts; type: in vivo; settings: not shown
[7] = system: vascular endothelial growth factor receptor (VEGFR); test: P07 inhibition of VEGF receptor signaling in microvascular endothelial cells; type: cell-based; settings: FIG. 1
From the text: as §1

[8] = system: orthotopic triple-negative breast cancer (TNBC) xenografts; test: Orthotopic triple-negative breast cancer xenografts; type: in vivo
[9] = system: rabbit eye, human VEGF induced leakage; test: VEGF induced vascular leakage (edema) model in the rabbit eye; type: in vivo; settings: about 50 μg P07 in the eye prior to VEGF injection, fluorescein i.v. 3 days after VEGF, FIG. 3
Protocol: P07 was also tested in a model of edema in the rabbit eye. In this model human VEGF was injected directly into the eye causing the local vasculature to be leaky. The extent of this leak was assessed by measuring the amount of fluorescence in the eye resulting from the leakage of sodium fluorescein administered intravenously 3 days after VEGF injection.

[10] = biological target: αVβ3 integrin (Homo sapiens, UniProt P05106+P06756); test: Target identification of P07 (αVβ3); type: binding
[11] = system: transgenic mouse over-expressing the human form of vascular endothelial growth factor (VEGF) in the retina; test: Vascular leakage and retinal detachment in transgenic mouse over-expressing human VEGF in the retina; type: in vivo
From the text: The vascular leakage in this model is so severe that the blood that pools behind the retina causes retinal detachment.

[12] = system: platelet derived growth factor receptor (PDGFR); test: P07 inhibition of PDGF receptor signaling; type: cell-based
From the text: as §1

[13] = Size characterization, Malvern Zetasizer Nano ZS90; type: physicochemical; settings: 1 mg/ml in water
Protocol: N07 was suspended in water at 1 mg/ml and analyzed using a Malvern Zetasizer Nano ZS90. Z-average diameter and intensity-based size distribution were measured and recorded.

Sequence of αVβ3 integrin (P06756 31-889 limits assumed): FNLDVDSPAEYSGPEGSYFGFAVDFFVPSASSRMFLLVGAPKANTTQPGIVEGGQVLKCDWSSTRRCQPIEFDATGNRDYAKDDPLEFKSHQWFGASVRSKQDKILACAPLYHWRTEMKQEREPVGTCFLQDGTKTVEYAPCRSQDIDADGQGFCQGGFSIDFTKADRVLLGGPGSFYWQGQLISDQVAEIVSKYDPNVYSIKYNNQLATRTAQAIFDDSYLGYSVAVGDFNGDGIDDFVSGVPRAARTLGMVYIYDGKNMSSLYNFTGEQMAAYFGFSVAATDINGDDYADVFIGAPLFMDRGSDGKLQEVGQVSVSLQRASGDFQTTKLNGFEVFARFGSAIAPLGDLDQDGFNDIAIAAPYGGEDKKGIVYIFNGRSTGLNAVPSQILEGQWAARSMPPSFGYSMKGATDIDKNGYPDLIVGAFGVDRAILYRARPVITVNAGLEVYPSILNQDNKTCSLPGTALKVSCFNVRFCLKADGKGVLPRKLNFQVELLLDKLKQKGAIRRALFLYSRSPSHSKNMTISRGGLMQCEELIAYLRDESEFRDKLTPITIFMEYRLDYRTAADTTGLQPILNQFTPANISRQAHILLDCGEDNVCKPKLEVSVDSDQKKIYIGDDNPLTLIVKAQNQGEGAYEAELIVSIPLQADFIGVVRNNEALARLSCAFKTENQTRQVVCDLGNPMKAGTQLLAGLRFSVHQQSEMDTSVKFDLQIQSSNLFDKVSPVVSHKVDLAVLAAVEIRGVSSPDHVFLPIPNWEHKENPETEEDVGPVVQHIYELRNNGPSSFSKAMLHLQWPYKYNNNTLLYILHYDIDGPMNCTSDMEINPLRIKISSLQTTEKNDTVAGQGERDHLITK
Sequence of αVβ3 integrin (P06756 891-1048 partner limits assumed): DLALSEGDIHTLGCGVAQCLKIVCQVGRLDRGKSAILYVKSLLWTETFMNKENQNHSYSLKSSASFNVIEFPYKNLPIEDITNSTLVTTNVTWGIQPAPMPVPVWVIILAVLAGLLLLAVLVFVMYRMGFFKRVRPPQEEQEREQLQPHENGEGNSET
Sequence of αVβ3 integrin (P05106 27-788): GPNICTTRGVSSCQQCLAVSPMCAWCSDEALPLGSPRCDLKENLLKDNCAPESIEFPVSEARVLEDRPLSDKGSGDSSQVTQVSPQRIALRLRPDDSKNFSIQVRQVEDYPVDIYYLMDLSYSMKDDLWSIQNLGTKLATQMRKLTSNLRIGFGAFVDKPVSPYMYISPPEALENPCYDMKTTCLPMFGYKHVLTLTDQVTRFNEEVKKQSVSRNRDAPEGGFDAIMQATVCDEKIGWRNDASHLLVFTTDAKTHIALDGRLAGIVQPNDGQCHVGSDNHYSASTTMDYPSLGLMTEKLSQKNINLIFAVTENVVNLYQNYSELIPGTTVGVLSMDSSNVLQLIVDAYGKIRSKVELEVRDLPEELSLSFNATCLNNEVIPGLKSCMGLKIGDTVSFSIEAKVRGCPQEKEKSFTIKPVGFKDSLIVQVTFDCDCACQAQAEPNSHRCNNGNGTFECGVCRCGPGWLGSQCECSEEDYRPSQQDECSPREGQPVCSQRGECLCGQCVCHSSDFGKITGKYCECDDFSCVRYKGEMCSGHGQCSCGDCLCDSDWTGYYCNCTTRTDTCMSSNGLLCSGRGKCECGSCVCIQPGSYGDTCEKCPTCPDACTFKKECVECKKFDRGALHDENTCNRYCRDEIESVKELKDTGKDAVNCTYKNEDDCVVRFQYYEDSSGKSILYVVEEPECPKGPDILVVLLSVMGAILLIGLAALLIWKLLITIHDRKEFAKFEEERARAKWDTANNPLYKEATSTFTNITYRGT
Sequence of α5β1 integrin (P08648 42-894 limits assumed): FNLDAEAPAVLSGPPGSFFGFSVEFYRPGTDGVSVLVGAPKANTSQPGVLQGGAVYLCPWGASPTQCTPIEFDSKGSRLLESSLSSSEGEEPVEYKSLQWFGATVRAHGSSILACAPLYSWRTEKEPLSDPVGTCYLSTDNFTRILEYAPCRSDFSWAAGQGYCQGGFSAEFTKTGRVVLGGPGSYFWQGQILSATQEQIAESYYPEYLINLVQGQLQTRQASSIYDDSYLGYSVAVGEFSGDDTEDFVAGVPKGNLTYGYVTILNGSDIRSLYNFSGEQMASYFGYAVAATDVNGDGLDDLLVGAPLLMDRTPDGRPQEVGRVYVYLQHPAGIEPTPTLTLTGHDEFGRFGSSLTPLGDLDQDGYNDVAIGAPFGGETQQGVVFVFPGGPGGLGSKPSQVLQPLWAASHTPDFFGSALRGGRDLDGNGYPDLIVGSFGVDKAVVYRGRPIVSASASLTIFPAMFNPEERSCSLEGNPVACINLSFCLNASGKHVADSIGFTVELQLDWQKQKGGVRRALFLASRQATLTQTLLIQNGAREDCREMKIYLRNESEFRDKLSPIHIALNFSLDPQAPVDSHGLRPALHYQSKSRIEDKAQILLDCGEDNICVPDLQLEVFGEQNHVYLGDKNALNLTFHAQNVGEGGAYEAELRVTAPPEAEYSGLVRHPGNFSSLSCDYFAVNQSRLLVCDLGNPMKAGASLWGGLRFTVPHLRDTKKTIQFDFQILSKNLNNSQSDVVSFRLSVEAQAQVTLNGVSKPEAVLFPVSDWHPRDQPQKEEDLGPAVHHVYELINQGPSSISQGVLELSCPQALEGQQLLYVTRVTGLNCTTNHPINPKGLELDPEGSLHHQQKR
Sequence of α5β1 integrin (P08648 895-1049 partner limits assumed): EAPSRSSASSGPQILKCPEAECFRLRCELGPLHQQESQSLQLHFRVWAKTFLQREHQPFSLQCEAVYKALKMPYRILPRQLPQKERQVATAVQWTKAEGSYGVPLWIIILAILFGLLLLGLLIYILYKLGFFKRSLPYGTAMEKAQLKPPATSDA
Sequence of α5β1 integrin (P05556 21-798): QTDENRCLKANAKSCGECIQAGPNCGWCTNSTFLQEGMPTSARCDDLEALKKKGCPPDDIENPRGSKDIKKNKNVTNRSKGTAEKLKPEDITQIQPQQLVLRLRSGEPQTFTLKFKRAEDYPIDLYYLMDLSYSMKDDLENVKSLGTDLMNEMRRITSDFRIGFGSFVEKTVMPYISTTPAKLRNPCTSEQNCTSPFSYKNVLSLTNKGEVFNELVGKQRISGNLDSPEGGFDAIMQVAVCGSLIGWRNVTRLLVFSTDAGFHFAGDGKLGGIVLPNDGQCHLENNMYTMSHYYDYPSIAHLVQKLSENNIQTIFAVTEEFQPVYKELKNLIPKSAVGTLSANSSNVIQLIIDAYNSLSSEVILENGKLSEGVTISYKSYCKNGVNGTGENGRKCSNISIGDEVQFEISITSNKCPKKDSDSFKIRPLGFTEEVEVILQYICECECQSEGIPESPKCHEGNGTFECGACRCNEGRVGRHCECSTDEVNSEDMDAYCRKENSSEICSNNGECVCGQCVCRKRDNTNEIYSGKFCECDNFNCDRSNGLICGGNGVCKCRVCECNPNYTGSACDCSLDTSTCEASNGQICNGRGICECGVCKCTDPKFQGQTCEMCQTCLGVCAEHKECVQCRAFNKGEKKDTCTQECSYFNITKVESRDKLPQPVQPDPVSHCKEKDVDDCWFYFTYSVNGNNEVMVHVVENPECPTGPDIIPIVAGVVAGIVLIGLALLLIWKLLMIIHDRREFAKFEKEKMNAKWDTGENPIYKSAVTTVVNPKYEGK

Substance	identified target: α5β1 integrin [1]	inhibition of signaling from HGFR (c-met) [2]	inhibition of signaling from IGFR [3]	growth of SCLC xenografts [4]	VEGF induced neovascularization and leakage [5]	growth of glioblastoma xenografts [6]	inhibition of signaling from VEGFR [7]	growth of orthotopic TNBC xenografts ([8]; FIG. 4)	tumor vasculature / neovascularization in orthotopic TNBC xenografts ([8]; FIG. 5)	vascular leakage (sodium fluorescein fluorescence in the eye) [9]	identified target: αVβ3 integrin [10]	vascular leakage [11]	retinal detachment ([11]; FIG. 2)	inhibition of signaling from PDGFR [12]	PDI [13]	Z-Average [13] [nm·days]
LRRFSTAPFAFIDINDVINF [P07]	identified to be the α5β1 and αVβ3 integrins	inhibit signaling	inhibit signaling	inhibits the growth	strongly inhibits	inhibits the growth	inhibit signaling	inhibits the growth; also recorded: dose dependent manner	dramatically diminished vasculature; also recorded: inhibits neovascularization	dramatically inhibited	identified to be the α5β1 and αVβ3 integrins	inhibit vascular leakage	almost completely blocked retinal detachment	inhibit signaling	–	–
PLGA-PEG-P07: nanoparticles made completely of PLGA-PEG-P07 conjugated polymer (LRRFSTAPFAFIDINDVINF)	–	–	–	–	–	–	–	–	–	–	–	–	–	–	0.29	77.59 ± 2.65
